In PMC8948292, “Combining PEGylated mito-atovaquone with MCT and Krebs cycle redox inhibitors as a potential strategy to abrogate tumor cell proliferation” (Scientific Reports, 2022):
Where two headings read alike, the source gives them in different places.

Key:
MiaPaCa-2 cells = test: Cell proliferation (cell confluence), IncuCyte Live-Cell Analysis System; format: cell-based, human; settings: MiaPaCa-2 cells
Experimental: (§1) The following cell lines were obtained from the American Type Culture Collection (Manassas, VA), where they were regularly authenticated: MiaPaCa-2 (ATCC Cat# CRL-1420, human pancreatic cancer cells), U87MG (ATCC Cat# HTB-14, human brain cancer cells), A549 (ATCC Cat# CCL-185, lung cancer cells), and HCT-116 (ATCC Cat# CCL-247, colon cancer cells). All cell lines were grown at 37 °C in 5% carbon dioxide. MiaPaCa-2 cells were maintained in Dulbecco's Modified Eagle Medium (Thermo Fisher Scientific, Waltham, MA; Cat# 11965) supplemented with 10% fetal bovine serum. U87MG, A549, and HCT-116 cells were maintained in RPMI 1640 medium (Thermo Fisher Scientific, Cat# 11875), supplemented with 10% fetal bovine serum. All cells were stored in liquid nitrogen and used within 20 passages after thawing.
(§2) The IncuCyte Live-Cell Analysis System was used to monitor cell proliferation[3],[33],[67]. As shown in previous publications[3],[67], this imaging system is probe-free and noninvasive, and enables continuous monitoring of cell confluence over several days. The increase in the percentage of cell confluence was used as a surrogate marker of cell proliferation. In a 96-well plate, cells were plated at 1,000 cells per well in triplicates and left to adhere overnight. Cells were then treated with Mito-PEG-ATO analogs, and the cell confluency was recorded over several days in the IncuCyte Live-Cell Analysis System.

A549 cells = test: as above; format: cell-based; settings: Homo sapiens; A549 cells; control ~90% confluence; read-out: IC50, inhibition of A549 cell proliferation
Experimental: as §1, §2
(§3) Figure S7. Effects of Mito-PEG-ATO analogs on the proliferation of human lung cancer (A549) cells and human colon cancer (HCT-116) cells. (A) The effects of Mito-PEG5-ATO and ATO on the proliferation of A549 (left) or HCT-116 (right) cells were monitored in the IncuCyte Live-Cell Analysis system. The IncuCyte analyzer provides real-time updates on cell confluence, based on segmentation of high definition-phase contrast images. Representative cell images were shown as a segmentation mask illustrated in brown when control cells reached 90% confluence (vertical solid black line). (B) The IC50 values for A549 (left) or HCT-116 (right) cells were determined at the point at which control cells reached ~90% confluence (vertical solid black line). Relative cell confluence (control is taken as 100%) is plotted against concentration. Dashed lines represent the fitting curves used to determine the IC50 values as indicated. Data shown are the mean±SD.

HCT-116 cells = test: as above; format: cell-based; settings: Homo sapiens; HCT-116 cells; control ~90% confluence; read-out: IC50, inhibition of HCT-116 cell proliferation
Experimental: as §1, §2, §3

[1] = system: mitochondrial respiration (OCR) in intact MiaPaCa-2 cells; test: Intact cell mitochondrial respiration (basal OCR), Seahorse XF-96; format: cell-based, human; settings: 24 h treatment; for OCR (pmol/min/µg protein): intact MiaPaCa-2 cells, baseline OCR, mean, n=4
Experimental: (§4) Mitochondrial oxygen consumption was measured using the Seahorse XF-96 Extracellular Flux Analyzer (Agilent, North Billerica, MA)[3],[33],[67],[68]. To determine the intact cell mitochondrial function of MiaPaCa-2 cells in response to Mito-PEG-ATO analogs, we used the bioenergetic function assay previously described[2],[3]. […] From these measurements, indices of mitochondrial function were determined as previously described[2],[3]. For mitochondrial complex activities assays, after cells were treated with Mito-PEG-ATO analogs for 24 h, the OCR-based assessment of mitochondrial complex activities was carried out on acutely permeabilized cells in the presence of different mitochondrial substrates, i.e., pyruvate/malate for complex I and duroquinol for complex III[3],[32],[34],[69]. Rotenone, malonate, and antimycin A (Sigma-Aldrich, St. Louis, MO) were used as specific inhibitors of mitochondrial complexes I, II, and III, respectively. Briefly, cells that were intact after treatments were immediately permeabilized using the Seahorse XF Plasma Membrane Permeabilizer (Agilent). The mitochondrial complex I-induced OCR was assayed in mannitol and sucrose buffer[69] containing 10 mM pyruvate and 1.5 mM malate (substrates for complex I) and 10 mM malonate (which inhibits complex II activities). The mitochondrial complex III-driven OCR was assayed in a mannitol and sucrose buffer containing 0.5 mM duroquinol (substrate for complex III) as well as 1 µM rotenone and 10 mM malonate (which inhibit both complex I and II activities). The IC50 values were determined as previously reported.

[2] = molecular target: mitochondrial complex I (MiaPaCa-2 cells) (Homo sapiens, UniProt O75251+O75306+P03886); test: Complex I-dependent oxygen consumption in permeabilized cells, Seahorse XF-96; format: cell-based; settings: 24 h, with Mito-PEG5-ATO
Experimental: as §4, with “The mitochondrial complex III-driven OCR was assayed in a mannitol and sucrose buffer containing 0.5 mM duroquinol (substrate for complex III) as well as 1 µM rotenone and 10 mM malonate (which inhibit both complex I and II activities).” left out

[3] = molecular target: mitochondrial complex III (MiaPaCa-2 cells) (Homo sapiens, UniProt P00156); test: Complex III-dependent oxygen consumption in permeabilized cells, Seahorse XF-96; format: cell-based; settings: MiaPaCa-2 cells; with Mito-PEG5-ATO
Experimental: as §4

Chain of mitochondrial complex I (MiaPaCa-2 cells) (O75306 34-463): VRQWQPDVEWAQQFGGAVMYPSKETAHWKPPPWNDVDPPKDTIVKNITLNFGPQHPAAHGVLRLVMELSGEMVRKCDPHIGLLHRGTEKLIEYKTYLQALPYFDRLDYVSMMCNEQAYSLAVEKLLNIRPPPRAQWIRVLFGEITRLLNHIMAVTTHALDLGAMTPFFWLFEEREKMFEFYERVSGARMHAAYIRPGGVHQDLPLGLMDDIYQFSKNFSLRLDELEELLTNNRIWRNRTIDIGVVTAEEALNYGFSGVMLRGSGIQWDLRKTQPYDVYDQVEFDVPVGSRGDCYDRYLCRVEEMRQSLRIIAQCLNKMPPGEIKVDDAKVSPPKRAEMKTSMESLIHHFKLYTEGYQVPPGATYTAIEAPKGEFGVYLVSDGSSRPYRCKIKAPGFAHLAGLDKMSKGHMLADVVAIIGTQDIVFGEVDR
Chain of mitochondrial complex I (MiaPaCa-2 cells) (O75251 39-213): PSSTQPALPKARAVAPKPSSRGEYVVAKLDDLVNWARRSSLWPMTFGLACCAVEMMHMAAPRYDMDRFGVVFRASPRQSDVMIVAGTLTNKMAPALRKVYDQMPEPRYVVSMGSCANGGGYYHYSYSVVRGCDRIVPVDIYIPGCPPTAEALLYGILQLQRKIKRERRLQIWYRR
Chain of mitochondrial complex I (MiaPaCa-2 cells) (P03886 whole entry): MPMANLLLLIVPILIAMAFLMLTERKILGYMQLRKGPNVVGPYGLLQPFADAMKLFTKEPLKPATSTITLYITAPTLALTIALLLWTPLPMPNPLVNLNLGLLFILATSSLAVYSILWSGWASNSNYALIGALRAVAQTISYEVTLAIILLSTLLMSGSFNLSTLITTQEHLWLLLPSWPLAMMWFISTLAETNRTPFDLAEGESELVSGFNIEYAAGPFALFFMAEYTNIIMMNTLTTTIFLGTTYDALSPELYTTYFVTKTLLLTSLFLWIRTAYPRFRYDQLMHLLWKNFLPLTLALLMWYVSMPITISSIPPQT
Chain of mitochondrial complex III (MiaPaCa-2 cells) (P00156 whole entry): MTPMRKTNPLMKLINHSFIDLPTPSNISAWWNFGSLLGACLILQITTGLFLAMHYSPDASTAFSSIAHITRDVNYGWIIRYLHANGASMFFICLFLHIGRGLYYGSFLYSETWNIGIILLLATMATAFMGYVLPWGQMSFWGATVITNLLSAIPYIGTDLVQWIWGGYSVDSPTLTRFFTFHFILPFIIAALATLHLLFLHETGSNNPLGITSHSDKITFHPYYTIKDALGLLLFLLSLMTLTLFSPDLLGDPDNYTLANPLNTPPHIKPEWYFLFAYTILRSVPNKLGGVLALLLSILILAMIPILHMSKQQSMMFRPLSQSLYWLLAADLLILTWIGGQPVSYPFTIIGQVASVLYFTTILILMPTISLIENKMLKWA
Chain of mitochondrial complex III (MiaPaCa-2 cells) (P47985 whole entry partner): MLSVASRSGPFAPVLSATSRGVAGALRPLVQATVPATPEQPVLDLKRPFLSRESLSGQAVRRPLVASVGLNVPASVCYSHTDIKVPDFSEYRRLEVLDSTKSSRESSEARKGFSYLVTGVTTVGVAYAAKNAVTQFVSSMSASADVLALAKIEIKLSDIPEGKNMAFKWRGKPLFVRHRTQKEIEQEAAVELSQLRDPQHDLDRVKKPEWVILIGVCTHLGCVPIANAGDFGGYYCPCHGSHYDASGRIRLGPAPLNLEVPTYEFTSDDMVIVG

Row | IC50 (MiaPaCa-2 cells; Homo sapiens, MIA PaCa-2, determined when control cells reached ~90% confluence, read-out: IC50, inhibition of cell proliferation) | IC50 (A549 cells) | IC50 (HCT-116 cells) | IC50 ([1]; Homo sapiens, MIA PaCa-2, MiaPaCa-2 cells, read-out: IC50, inhibition of basal OCR in intact cells) | Compound | OCR (pmol/min/µg protein) ([1]; 1 µM) | OCR (pmol/min/µg protein) ([1]; 3 µM) | OCR (pmol/min/µg protein) ([1]; 10 µM) | OCR (pmol/min/µg protein) ([1]; 15 µM) | OCR (pmol/min/µg protein) ([1]; 17.5 µM) | OCR (pmol/min/µg protein) ([1]; 20 µM) | OCR (pmol/min/µg protein) ([1]; 22.5 µM) | OCR (pmol/min/µg protein) ([1]; 25 µM) | OCR (pmol/min/µg protein) ([1]; 30 µM) | OCR (pmol/min/µg protein) ([1]; 40 µM) | OCR (pmol/min/µg protein) ([1]; 50 µM) | Inhibition of cell proliferation in combination with Mito-PEG5-ATO (combination index) (MiaPaCa-2 cells; combined with Mito-PEG5-ATO) | % changes of IC50 with vs without Mito-PEG5-ATO (MiaPaCa-2 cells; heat map Fig. 7d) | IC50 (MiaPaCa-2 cells; inhibitor alone, control ~90% confluence, read-out: IC50 (cell proliferation) without Mito-PEG5-ATO) | Effect on the decrease in complex I-induced oxygen consumption induced by Mito-PEG5-ATO [2] | Effect on the decrease in complex III-induced oxygen consumption induced by Mito-PEG5-ATO [3]
1 | 19 µM | 24 µM | 20 µM | 6.5 µM | O=C1C(O)=C([C@H]2CC[C@H](c3ccc(Cl)cc3)CC2)C(=O)c2ccccc21 [ATO, atovaquone] | 11.69 pmol/min/µg protein | 11.27 pmol/min/µg protein | 4.45 pmol/min/µg protein | 3.40 pmol/min/µg protein | 2.08 pmol/min/µg protein | 1.80 pmol/min/µg protein | 2.05 pmol/min/µg protein | 2.46 pmol/min/µg protein | 1.99 pmol/min/µg protein | 2.11 pmol/min/µg protein | 0.93 pmol/min/µg protein |  |  |  |  | 
2 |  |  |  |  | Cc1cccc(COc2ccccc2CN(CC[C@H](N)C(=O)O)Cc2ccccc2OCc2cccc(C)c2)c1 [V-9302, reference compound] |  |  |  |  |  |  |  |  |  |  |  | synergistically inhibited | 71.1% | 8.6 µM | Neither AZD-3965 nor V-9302 significantly affected | Neither AZD-3965 nor V-9302 significantly affected
